Reference: ChEMBL document CHEMBL1140817, “Synthesis and anti-HIV activity of 2'-fluorine modified nucleoside phosphonates: analogs of GS-9148” (Bioorg Med Chem Lett, 2008)
pEC50: −log10 of the molar value.

Columns and labels:
[1] = system: Human immunodeficiency virus 1; experiment: Antiviral activity against HIV1 3B in MT2 cells; format: functional, organism-based; details: Human immunodeficiency virus 1, 3B
[2] = Cytotoxicity against human MT2 cells; format: cell-based

| pEC50 [1] | Compound | CC50 [2] |
| --- | --- | --- |
| 4.91 | Nc1ncnc2c1ncn2[C@@H]1O[C@H](OCP(=O)(O)O)C=C1F [GS-9148] | > 1000 µM |
| 5.44 | C[C@H](Cn1cnc2c(N)ncnc21)OCP(=O)(O)O [TENOFOVIR ANHYDROUS] | > 1000 µM |
| 4.76 | Nc1nc2c(ncn2[C@@H]2O[C@H](OCP(=O)(O)O)C=C2F)c(=O)[nH]1 | 700 µM |
| 3.55 | Nc1ncnc2c1ncn2[C@@H]1O[C@H](OCP(=O)(O)O)C[C@@H]1F | > 1000 µM |
| < 3.52 | Nc1nc(N)c2ncn([C@@H]3O[C@H](OCP(=O)(O)O)C=C3F)c2n1 |  |
| < 3.52 | O=c1[nH]cnc2c1ncn2[C@@H]1O[C@H](OCP(=O)(O)O)C=C1F |  |
